Experimental data as given in patent publication US4199504A (priority 1978, dated 1980).

How the values were obtained:
755 adenocarcinoma = 755 adenocarcinoma transplanted in mice, tumor inhibition or prolongation of survival; assay type: in vivo
Procedure: (§1) The compounds of this invention and those preparable by the process disclosed herein are active against transplanted tumors in mice in vivo.
(§2) The following table--Table 1--gives the results of experiments in which mice bearing transplanted Gardner lymphosarcoma (GLS), C3 H mammary tumor, B16 melanoma, P 1534(J) leukemia, P388 leukemia or 755 adenocarcinoma were treated with a compound of this invention. In the table, column 1 gives the name of the compound; column 2, the tumor system employed; column 3, the dosage schedule and column 4, the percent inhibition of tumor growth or increased life span.

[1] = test system: Gardner lymphosarcoma (GLS); assay: Gardner lymphosarcoma (GLS) transplanted in mice, tumor inhibition or prolongation of survival; assay type: in vivo
Procedure: as §1, §2

C3 H mammary tumor = assay: C3H mammary tumor transplanted in mice, tumor inhibition or prolongation of survival; assay type: in vivo
Procedure: as §1, §2

P 1534(J) leukemia = P 1534(J) leukemia transplanted in mice, tumor inhibition or prolongation of survival; assay type: in vivo; conditions: P1534(J)
Procedure: as §1, §2

P388 leukemia = P388 leukemia transplanted in mice, tumor inhibition or prolongation of survival; assay type: in vivo
Procedure: as §1, §2

B16 melanoma = B16 melanoma transplanted in mice, tumor inhibition or prolongation of survival; assay type: in vivo
Procedure: as §1, §2

leukemias = conditions: clinical trial in humans; cited from earlier work
[2] = test system: experimental malignancies; conditions: naturally-occurring Vinca alkaloids; prior patents; cited from earlier work

CCC1(O)CC2CN(CCc3c([nH]c4ccccc34)C(C(=O)OC)(c3cc4c(cc3OC)N(C)C3C(O)(C(=O)NCC[Se][Se]CCNC(=O)C5(O)C(O)C6(CC)C=CCN7CCC8(c9cc(C%10(C(=O)OC)CC%11CN(CCc%12c%10[nH]c%10ccccc%12%10)CC(O)(CC)C%11)c(OC)cc9N(C)C58)C76)C(O)C5(CC)C=CCN6CCC43C65)C2)C1 (stereo not drawn) [bis[β-(4-Desacetyl VLB C-3 carboxamido)ethyl]diselenide disulfate]
Percent Inhibition or Prolongation of Survival Time (755 adenocarcinoma; 755, 0.6 mg./kg. × 3): 26-32%
Percent Inhibition or Prolongation of Survival Time (755 adenocarcinoma; 755, 0.9 mg./kg. × 3): 21-62%
Percent Inhibition or Prolongation of Survival Time (755 adenocarcinoma; 755, 1.2 mg./kg. × 3): 31-42%
Percent Inhibition or Prolongation of Survival Time (755 adenocarcinoma; 755, 1.8 mg./kg. × 3): 89%
Percent Inhibition or Prolongation of Survival Time ([1]; 1.5 mg./kg. × 3): 29%
Percent Inhibition or Prolongation of Survival Time ([1]; 2.0 mg./kg. × 3): 57%
Percent Inhibition or Prolongation of Survival Time ([1]; 2.5 mg./kg. × 3): 72%
Percent Inhibition or Prolongation of Survival Time (C3 H mammary tumor; 1.5 mg./kg. × 3): 56%
Percent Inhibition or Prolongation of Survival Time (C3 H mammary tumor; 2.0 mg./kg. × 3): 72%
Toxic (Percent Inhibition or Prolongation of Survival Time) (C3 H mammary tumor; 2.5 mg./kg. × 3): Toxic
Percent Inhibition or Prolongation of Survival Time (P 1534(J) leukemia; 1.2 mg./kg. × 3): 21%
Percent Inhibition or Prolongation of Survival Time (P 1534(J) leukemia; 1.8 mg./kg. × 3): 66%

CCC1(O)CC2CN(CCc3c([nH]c4ccccc34)C(C(=O)OC)(c3cc4c(cc3OC)N(C)C3C(O)(C(=O)NCCSSCCNC(=O)C5(O)C(O)C6(CC)C=CCN7CCC8(c9cc(C%10(C(=O)OC)CC%11CN(CCc%12c%10[nH]c%10ccccc%12%10)CC(O)(CC)C%11)c(OC)cc9N(C)C58)C76)C(O)C5(CC)C=CCN6CCC43C65)C2)C1 (stereo not drawn) [bis[β-(4-Desacetyl VLB C-3 carboxamido)ethyl]disulfide disulfate]
Percent Inhibition or Prolongation of Survival Time (755 adenocarcinoma; 755, 0.6 mg./kg. × 3): 29-34%
Percent Inhibition or Prolongation of Survival Time (755 adenocarcinoma; 755, 0.9 mg./kg. × 3): 34-54%
Percent Inhibition or Prolongation of Survival Time (755 adenocarcinoma; 755, 1.6 mg./kg. × 3): 60%
Percent Inhibition or Prolongation of Survival Time (P388 leukemia; P388, 0.6 mg./kg. × 3): 33-44%
Percent Inhibition or Prolongation of Survival Time (P388 leukemia; P388, 0.9 mg./kg. × 3): 39-47%
Percent Inhibition or Prolongation of Survival Time (P388 leukemia; P388, 1.2 mg./kg. × 3): 53-61%
Percent Inhibition or Prolongation of Survival Time ([1]; 0.4 mg./kg. × 9): 43-100%
Percent Inhibition or Prolongation of Survival Time ([1]; 0.9 mg./kg. × 3): 34-46%
Percent Inhibition or Prolongation of Survival Time ([1]; 1.2 mg./kg. × 3): 62-93%
Percent Inhibition or Prolongation of Survival Time (B16 melanoma; B16, 0.6 mg./kg. × 3): 118%
number of indefinite survivors (B16 melanoma; B16, 0.6 mg./kg. × 3): 7
Percent Inhibition or Prolongation of Survival Time (B16 melanoma; B16, 0.9 mg./kg. × 3): 86%
number of indefinite survivors (B16 melanoma; B16, 0.9 mg./kg. × 3): 7
Percent Inhibition or Prolongation of Survival Time (B16 melanoma; B16, 1.2 mg./kg. × 3): 24%
number of indefinite survivors (B16 melanoma; B16, 1.2 mg./kg. × 3): 3
Percent Inhibition or Prolongation of Survival Time (C3 H mammary tumor; 0.9 mg./kg. × 3): 31-36%
Toxic (Percent Inhibition or Prolongation of Survival Time) (C3 H mammary tumor; 1.2 mg./kg. × 3): Toxic
Percent Inhibition or Prolongation of Survival Time (P 1534(J) leukemia; 0.6 mg./kg. × 3): 20-39%
Percent Inhibition or Prolongation of Survival Time (P 1534(J) leukemia; 0.9 mg./kg. × 3): 50-53%
Percent Inhibition or Prolongation of Survival Time (P 1534(J) leukemia; 1.2 mg./kg. × 3): 62%
Toxic (Percent Inhibition or Prolongation of Survival Time) (P 1534(J) leukemia; 1.2 mg./kg. × 3): Toxic
Percent Inhibition or Prolongation of Survival Time (P 1534(J) leukemia; 1.6 mg./kg. × 3): 90-99%

CC[C@]1(O)C[C@@H]2CN(CCc3c([nH]c4ccccc34)[C@@](C(=O)OC)(c3cc4c(cc3OC)N(C)[C@H]3[C@@](O)(C(N)=O)[C@H](O)[C@]5(CC)C=CCN6CC[C@]43[C@@H]65)C2)C1 [vindesine, 4-desacetyl VLB C-3 carboxamide]
effectiveness against leukemias (leukemias): effective against leukemias including vincristine-resistant leukemias
neurotoxicity compared with vincristine (leukemias): less neurotoxicity than does vincristine

CCC1(O)CC2CN(CCc3c([nH]c4ccccc34)C(C(=O)OC)(c3cc4c(cc3OC)N(C)C3C(O)(C(=O)NCCOCCNC(=O)C5(O)C(O)C6(CC)C=CCN7CCC8(c9cc(C%10(C(=O)OC)CC%11CN(CCc%12c%10[nH]c%10ccccc%12%10)CC(O)(CC)C%11)c(OC)cc9N(C)C58)C76)C(O)C5(CC)C=CCN6CCC43C65)C2)C1 (stereo not drawn) [bis[β -(4-Desacetyl VLB C-3 carboxamido)ethyl]ether disulfate]
Percent Inhibition or Prolongation of Survival Time (P388 leukemia; P388, 0.6 mg./kg. × 3): 53%
Percent Inhibition or Prolongation of Survival Time (P388 leukemia; P388, 0.9 mg./kg. × 3): 77%
Percent Inhibition or Prolongation of Survival Time (P388 leukemia; P388, 1.2 mg./kg. × 3): 85%
Toxic (Percent Inhibition or Prolongation of Survival Time) (P388 leukemia; P388, 1.8 mg./kg. × 3): Toxic
Percent Inhibition or Prolongation of Survival Time ([1]; 0.4 mg./kg. × 9): 62%

CCC1(O)CC2CN(CCc3c([nH]c4ccccc34)C(C(=O)OC)(c3cc4c(cc3OC)N(C)C3C(O)(C(=O)NCCCCNC(=O)C5(O)C(O)C6(CC)C=CCN7CCC8(c9cc(C%10(C(=O)OC)CC%11CN(CCc%12c%10[nH]c%10ccccc%12%10)CC(O)(CC)C%11)c(OC)cc9N(C)C58)C76)C(O)C5(CC)C=CCN6CCC43C65)C2)C1 (stereo not shown) [1,4-bis(4-Desacetyl VLB C-3 carboxamido)butane disulfate]
Percent Inhibition or Prolongation of Survival Time ([1]; 0.4 mg./kg. × 9): 40%

CCC1(O)CN2CCc3c([nH]c4ccccc34)C(C(=O)OC)(c3cc4c(cc3OC)N(C)C3C(O)(C(=O)OC)CC5(CC)C=CCN6CCC43C65)CC(C2)C1O (stereo not shown) [4-desacetoxy-3'-hydroxyvinblastine]
active in the treatment of experimental malignancies in animals [2]: active
